Test results as given in ChEMBL document CHEMBL1201862, “PubChem BioAssay data set” (2004).
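Results reflect a 48-hour exposure of cells in 96-well plates to compound at five concentrations. GI50 = concentration required for 50% inhibition of growth.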 Activity calls are given as the source filed them. Cut-off read from the data, not from the text of the source: active = GI50 up to about 1.1 µM and inactive = higher.

Columns and labels:
Test in all cases: growth of human tumour cells (NCI), 48 h
786-0 = tested on: 786-0
A498 = tested on: A498
BT-549 = tested on: BT-549
CAKI-1 = tested on: CAKI-1
CCRF-CEM = tested on: CCRF-CEM
COLO 205 = tested on: COLO 205
EKVX = tested on: EKVX
HCC 2998 = tested on: HCC 2998
HCT-116 = tested on: HCT-116
HT-29 = tested on: HT-29
IGROV-1 = tested on: IGROV-1
LOX IMVI = tested on: LOX IMVI
MDA-MB-231 = tested on: MDA-MB-231
MDA-N = tested on: MDA-N
NCI/ADR-RES = tested on: NCI/ADR-RES
OVCAR-4 = tested on: OVCAR-4
SK-MEL-5 = tested on: SK-MEL-5
SR = tested on: SR
TK-10 = tested on: TK-10
U-251 = tested on: U-251

Measured: GI50

O=C1COc2ccc([N+](=O)[O-])cc2C(=O)C1
inactive: 786-0 > 10 µM | A498 > 10 µM | BT-549 > 10 µM | CAKI-1 > 10 µM | CCRF-CEM > 10 µM | COLO 205 > 10 µM | EKVX > 10 µM | HCC 2998 > 10 µM | HCT-116 > 10 µM | HT-29 > 10 µM | IGROV-1 > 10 µM | LOX IMVI > 10 µM | MDA-MB-231 > 10 µM | MDA-N > 10 µM | NCI/ADR-RES > 10 µM | OVCAR-4 > 10 µM | SK-MEL-5 > 10 µM | SR > 10 µM | TK-10 > 10 µM | U-251 > 10 µM

COc1ccc(OC)c(C2Cc3cnc4nc(N)nc(N)c4c3C2)c1 (stereo not given)
inactive: 786-0 24.2 µM | A498 16.9 µM | BT-549 22.8 µM | CAKI-1 76.9 µM | CCRF-CEM 24.4 µM | COLO 205 19.5 µM | EKVX 25.6 µM | HCC 2998 26.3 µM | HCT-116 19.8 µM | HT-29 20.8 µM | IGROV-1 15.8 µM | LOX IMVI 19.8 µM | MDA-MB-231 23.7 µM | MDA-N 25.8 µM | NCI/ADR-RES > 100 µM | OVCAR-4 20.8 µM | SK-MEL-5 29.6 µM | SR 19.4 µM | TK-10 26.2 µM | U-251 20.7 µM

COc1ccc2c(c1)CC1(O)COc3cc(OC)ccc3C1O2 (stereo not given)
inactive: 786-0 > 100 µM | A498 > 100 µM | BT-549 > 100 µM | CAKI-1 > 100 µM | CCRF-CEM > 100 µM | COLO 205 > 100 µM | EKVX > 100 µM | HCC 2998 77.8 µM | HCT-116 > 100 µM | HT-29 > 100 µM | IGROV-1 > 100 µM | LOX IMVI > 100 µM | MDA-MB-231 > 100 µM | MDA-N > 100 µM | NCI/ADR-RES 68.9 µM | OVCAR-4 63.7 µM | SK-MEL-5 38.8 µM | SR > 100 µM | TK-10 > 100 µM | U-251 91.6 µM

O=c1[nH]nc(Nc2ccc(Cl)cc2)c2nnn(C3CCCCC3)c12
inactive: 786-0 15.1 µM | A498 37.4 µM | BT-549 > 100 µM | CAKI-1 16.2 µM | CCRF-CEM 26.7 µM | COLO 205 59.2 µM | EKVX 84.1 µM | HCC 2998 > 100 µM | HCT-116 42.1 µM | HT-29 26.1 µM | IGROV-1 > 100 µM | LOX IMVI 16.4 µM | MDA-MB-231 13.9 µM | MDA-N > 100 µM | NCI/ADR-RES 32.1 µM | OVCAR-4 17 µM | SK-MEL-5 > 100 µM | SR 7.19 µM | TK-10 53 µM | U-251 25.2 µM

CC1(C)CO[P@@](=S)(c2ccccn2)O[C@@H]1c1ccccc1
inactive: 786-0 > 100 µM | A498 > 100 µM | BT-549 > 100 µM | CAKI-1 > 100 µM | CCRF-CEM 64.4 µM | COLO 205 > 100 µM | EKVX 96.8 µM | HCC 2998 > 100 µM | HCT-116 93.3 µM | HT-29 > 100 µM | IGROV-1 > 100 µM | LOX IMVI > 100 µM | MDA-MB-231 > 100 µM | MDA-N > 100 µM | NCI/ADR-RES 75 µM | OVCAR-4 73.6 µM | SK-MEL-5 95.1 µM | SR 39.4 µM | TK-10 > 100 µM | U-251 > 100 µM

O=C(CC(=O)N(C(=O)c1ccccc1)c1ccc(Cl)cc1)N/N=C\c1ccccc1O
inactive: 786-0 40 µM | A498 65 µM | BT-549 21.1 µM | CAKI-1 > 100 µM | CCRF-CEM 2.86 µM | COLO 205 85.5 µM | EKVX 37 µM | HCC 2998 33.6 µM | HCT-116 30.6 µM | HT-29 > 100 µM | IGROV-1 25.4 µM | LOX IMVI 58.1 µM | MDA-MB-231 12.9 µM | MDA-N > 100 µM | NCI/ADR-RES 50.6 µM | OVCAR-4 > 100 µM | SK-MEL-5 64 µM | SR 29.4 µM | TK-10 32.3 µM | U-251 48.2 µM

Nc1ccc([As](=O)(O)O)cc1 [ARSANILIC ACID]
inactive: 786-0 > 100 µM | A498 > 100 µM | BT-549 > 100 µM | CAKI-1 > 100 µM | CCRF-CEM > 100 µM | COLO 205 > 100 µM | EKVX > 100 µM | HCC 2998 > 100 µM | HCT-116 > 100 µM | HT-29 > 100 µM | IGROV-1 > 100 µM | LOX IMVI > 100 µM | MDA-MB-231 > 100 µM | MDA-N > 100 µM | NCI/ADR-RES > 100 µM | OVCAR-4 > 100 µM | SK-MEL-5 > 100 µM | SR > 100 µM | TK-10 > 100 µM | U-251 > 100 µM
